Experimental findings from US20250339443A1, “METHOD FOR TREATING OR PREVENTING CALCIUM RELEASE-ACTIVATED CALCIUM CHANNEL OR DISCOIDIN DOMAIN RECEPTOR 2 RELATED DISORDERS OR CONDITIONS” (LumiSTAR Biotechnology, Inc., priority 2023, published 2025) are described below.

The target of assay [1] is T1, CRAC channel (Homo sapiens, UniProt Q96D31). Put plainly: SOCE in T cells. In kind it is cell-based. Details: endogenous in cells; host or cells: HEK293T. As to conditions: 10 μM. The method, then: (§1) The effects of BTP2, WRG-28, Av, and CM-4620 on SOCE were evaluated in T cells (FIG. 4A) and macrophages (FIG. 4E). Cells were cultured on glass-bottom 96-well plates and pretreated with various compounds (10 μM) while being loaded with Fura 2-AM. Subsequently, the cytosolic calcium signal waves were recorded, and the second peak of each wave and rate of entry were assessed. Each bar represents the mean value derived from, 43 to 111 cells for T cells (FIG. 4A), and 52 to 91 cells for macrophages (FIG. 4E). Cytokine induction in T cells and macrophages was conducted as described in the methods section. The levels of cytokines, including IL-2, TNF-α, and IL-6 in the culture medium were assessed using ELISA kits for T cells (FIG. 4B, FIG. 4C, and FIG. 4D) and macrophages (FIG. 4F, FIG. 4G, and FIG. 4H), respectively. Each bar represents the mean±SEM. In all the graphs, *, **, and *** denote p-values of <0.05, 0.01, and 0.001, respectively. […]
(§2) Cells cultured on a glass-bottom 96 well plate for 48 hours were treated with different compounds (10 μM) and Fura 2-AM (1 μM) simultaneously in a solution containing 145 mM NaCl, 2.8 mM KCl, 2 mM CaCl2, 2 mM MgCl2, 10 mM D-glucose, 10 mM HEPES, pH 7.4 for 40 minutes in the dark. […] All the images were analyzed by using IGOR Pro software. […]

Assay [2] addresses T1, CRAC channel. Put plainly: SOCE in macrophages. In kind it is cell-based. Details: endogenous in cells; host or cells: HEK293T. The conditions noted are these: 10 μM. The method, then: as §1, §2
Assay [3] has as its system BLM-induced pulmonary fibrosis. The experiment in a line: Bleomycin-induced lung fibrosis mouse model. The class given is in vivo. As to conditions: 14 days, Nintedanib 60 mg/kg/day, WRG-28 5 mg/kg/day, Av 5 mg/kg/day. From the text: A Bleomycin (BLM)-induced lung fibrosis mouse model was used, and the timelines of operation and drug delivery are depicted in FIG. 11A. […] The hydroxyproline content, serving as a marker of collagen deposition, was extracted from the right lobe and analyzed; the results are shown in FIG. 11C. FIG. 11D depicts histological analysis derived from the left lobe, quantifying the fibrotic area through staining with Masson's Trichrome and Picrosirius red, respectively.
8-to-10-week-old male WT (C57BL/6) mice received intratracheal instillation of bleomycin (bleocin; Nippon Kayaku) at the dose of 3 mg/kg diluted in PBS or PBS only (sham). To study fibrosis, lung samples were collected on day 21 for further analysis.
Lung function was assessed using the flexi Vent system (Scireq, Montreal, QC, Canada). Mice were tracheostomized and ventilated at a rate of 150 breaths/min, tidal volume of 10 ml/kg, and a positive end-expiratory pressure (PEEP) of 2-3 cmH2O. A deep inflation perturbation was used to estimate the inspiratory capacity (IC). Pressure-Volume loops were generated by constant increasing pressure, followed by regular decreasing pressure. Other lung function parameters like resistance, compliance, and elastance were measured by using SnapShot-150.
Levels of hydroxyproline in lung tissues were measured using the Hydroxyproline Colorimetric Assay kit (BioVision, Milpitas, CA, USA). Briefly, 10 mg of frozen right middle lobes homogenized in 100 μL of hydrochloric acid (HCl, 12 N), and hydrolyzed at 120° C. for 3 h. Then, 10 μL of individual samples were used to quantify the absorbance at 560 nm. Hydroxyproline content was presented in μg per lobe.
Mouse left lungs were fixed overnight in 4% paraformaldehyde (PFA), embedded in paraffin, and sectioned in 5 μm thickness for picrosirius red (Abcam, Cambridge, UK) and Masson's trichrome staining (Sigma Aldrich, MO, USA). Measurement of fibrotic area was quantified using ImageJ software (NIH, http://rsbweb.nih.gov/ij/).
The efficacy of WRG-28 and Av in treating pulmonary fibrosis was examined in vivo using a BLM-induced pulmonary fibrosis mouse model for evaluation. 50 μL of Bleomycin (BLM, 3 mg/kg) or PBS were introduced by intratracheal instillation on day 0 to induce fibrosis or serve as the control group, respectively. This was followed by the administration of various compounds for 14 days (Nintedanib: 60 mg/kg/day, WRG-28:5 mg/kg/day, Av: 5 mg/kg/day). Lung function evaluation was conducted on day 21 (FIG. 11A). Nintedanib, an FDA-approved drug for idiopathic pulmonary fibrosis (IPF) treatment, was used as the positive control. The results of the lung function evaluation are depicted in FIG. 11B. […] The degree of these changes can be reversed through treatment with Nintedanib, WRG-28 or Av. […] Histological analysis was conducted through staining techniques to quantify the fibrotic area.

T1 sequence (Q96D31 whole entry): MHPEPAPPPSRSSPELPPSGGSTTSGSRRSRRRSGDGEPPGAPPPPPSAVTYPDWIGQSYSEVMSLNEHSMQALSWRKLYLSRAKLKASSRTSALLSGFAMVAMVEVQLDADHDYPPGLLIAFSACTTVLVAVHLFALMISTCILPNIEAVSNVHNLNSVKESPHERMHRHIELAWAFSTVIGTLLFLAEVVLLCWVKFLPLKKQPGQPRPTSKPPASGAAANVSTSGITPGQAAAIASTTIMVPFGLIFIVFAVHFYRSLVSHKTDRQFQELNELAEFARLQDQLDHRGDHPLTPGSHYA

As for `CCNS(=O)(=O)c1ccc(COc2ccc3nc4ccc(=O)cc-4oc3c2)cc1` [WRG-28], the “SOCE in T cells” value on CRAC channel [1] is listed as “higher efficacy compared to Av”. Moreover, at CRAC channel [2], the SOCE in macrophages entry is on record as “higher efficacy compared to Av”. In assay [3] (day 21), the “BLM-induced changes in lung function (capacity, compliance, resistance, elastance)” value is reported as “reversed”. The “fibrotic area (Masson's trichrome and Picrosirius Red staining)” value in assay [3] (left lobe) is “effectively reduces”. The “hydroxyproline content (degree of fibrosis)” value in assay [3] (right lobe) is “inhibits the progression of fibrosis”.
